Key:
Format in all cases: in vivo
Spodoptera litura = experiment: Pesticidal test against Spodoptera litura (cabbage leaf dip); conditions: foliar, 144 h, 2-stage larvae, examined after 6 days, 25° C., read-out: pesticidal rate; for pest or weed control at 10 ppm: concentration 10 ppm; for pest or weed control at 1 ppm: concentration 1 ppm
Procedure, shortened: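 Cabbage leaf pieces dipped 30 seconds in compound solution at a predetermined concentration and air-dried, then offered to second-stage larvae, five per group in two replicates. Held at 25° C. Living and dead larvae counted after 6 days.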

Plutella xylostella = experiment: Pesticidal test against Plutella xylostella (cabbage leaf dip); conditions: foliar, 144 h, 2-stage larvae, examined after 6 days, 25° C., read-out: pesticidal rate; for pest or weed control at 10 ppm: concentration 10 ppm; for pest or weed control at 1 ppm: concentration 1 ppm
Procedure, shortened: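 Cabbage leaf pieces dipped 30 s in test solution at a predetermined concentration, air-dried, then offered to 2nd-instar larvae, five per group in duplicate. Held at 25° C; living and dead larvae counted after 6 days.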

Laodelphax striatellus = experiment: Pesticidal test against Laodelphax striatellus (rice seedling spray); conditions: 144 h, concentration 100 ppm, 3-stage larvae, examined after 6 days, 25° C., read-out: pesticidal rate
Procedure: Pesticidal Test against Laodelphax striatellus
2.5 ml of an acetone solution in which a test compound had been prepared at a predetermined concentration was sprayed on rice seedlings, air-dried, and then put into a glass tube having a diameter of 3 cm and a height of 13 cm, having water therein, and 3-stage larvae of Laodelphax striatellus were released and the tube was capped. They were left to stand in a thermostatic chamber at 25° C., and the numbers of the living pests and the dead pests were examined after 6 days. The test was carried out with ten larvae per group in two replicates.

O=C(Nc1c(Br)cc(C(F)(F)C(F)(F)F)cc1C(F)(F)F)c1cccc(NC(=O)c2cccnc2Cl)c1 [6-5914]
≥ 70%: pest or weed control at 10 ppm (Spodoptera litura) | pest or weed control at 10 ppm (Plutella xylostella) | pest or weed control at 100 ppm (Laodelphax striatellus)

O=C(Nc1c(Cl)cc(C(F)(C(F)(F)F)C(F)(F)F)cc1C(F)(F)F)c1cccc(NC(=O)c2cccnc2Cl)c1 [6-147]
≥ 70%: pest or weed control at 1 ppm (Spodoptera litura) | pest or weed control at 1 ppm (Plutella xylostella) | pest or weed control at 100 ppm (Laodelphax striatellus)

CN(C(=O)c1cccnc1Cl)c1cccc(C(=O)Nc2c(I)cc(C(F)(C(F)(F)F)C(F)(F)F)cc2C(F)(F)F)c1 [7-460]
≥ 70%: pest or weed control at 1 ppm (Spodoptera litura) | pest or weed control at 1 ppm (Plutella xylostella) | pest or weed control at 100 ppm (Laodelphax striatellus)

CN(C(=O)c1cccnc1Cl)c1cccc(C(=O)Nc2c(Br)cc(C(F)(C(F)(F)F)C(F)(F)C(F)(F)F)cc2Br)c1F (stereo not drawn) [7-1218]
≥ 70%: pest or weed control at 1 ppm (Spodoptera litura) | pest or weed control at 1 ppm (Plutella xylostella) | pest or weed control at 100 ppm (Laodelphax striatellus)

N#Cc1ccc(C(=O)Nc2cccc(C(=O)Nc3c(Br)cc(C(F)(C(F)(F)F)C(F)(F)F)cc3OC(F)(F)F)c2F)cc1 [6-5909]
≥ 70%: pest or weed control at 1 ppm (Spodoptera litura) | pest or weed control at 1 ppm (Plutella xylostella) | pest or weed control at 100 ppm (Laodelphax striatellus)

CN(C(=O)c1cccnc1Cl)c1cccc(C(=O)Nc2c(Cl)cc(C(F)(C(F)(F)F)C(F)(F)F)cc2Cl)c1F [7-984]
≥ 70%: pest or weed control at 1 ppm (Spodoptera litura) | pest or weed control at 1 ppm (Plutella xylostella) | pest or weed control at 100 ppm (Laodelphax striatellus)

CN(C(=O)c1cccc(F)c1)c1cccc(C(=O)Nc2c(Br)cc(C(F)(C(F)(F)F)C(F)(F)C(F)(F)F)cc2Br)c1F (stereo not drawn) [7-1184]
≥ 70%: pest or weed control at 1 ppm (Spodoptera litura) | pest or weed control at 1 ppm (Plutella xylostella) | pest or weed control at 100 ppm (Laodelphax striatellus)

CN(C(=O)c1ccccc1)c1cc(C(=O)Nc2c(Br)cc(C(F)(C(F)(F)F)C(F)(F)F)cc2C(F)(F)F)ccc1F [7-3348]
≥ 70%: pest or weed control at 1 ppm (Spodoptera litura) | pest or weed control at 1 ppm (Plutella xylostella) | pest or weed control at 100 ppm (Laodelphax striatellus)

O=C(Nc1c(Br)cc(C(F)(C(F)(F)F)C(F)(F)F)cc1C(F)(F)F)c1cccc(NC(=O)c2ccccc2F)c1 [6-269]
≥ 70%: pest or weed control at 1 ppm (Spodoptera litura) | pest or weed control at 10 ppm (Plutella xylostella) | pest or weed control at 100 ppm (Laodelphax striatellus)

CN(C(=O)c1cccnc1Cl)c1cccc(C(=O)Nc2c(I)cc(C(F)(C(F)(F)F)C(F)(F)C(F)(F)F)cc2I)c1F (stereo not drawn) [7-1374]
≥ 70%: pest or weed control at 1 ppm (Spodoptera litura) | pest or weed control at 1 ppm (Plutella xylostella) | pest or weed control at 100 ppm (Laodelphax striatellus)

CN(C(=O)c1cccc(NC(=O)c2ccc(C#N)cc2)c1)c1c(Br)cc(C(F)(C(F)(F)F)C(F)(F)F)cc1C(F)(F)F [8-289, N-(2-bromo-4-(perfluoropropan-2-yl)-6-(trifluoromethyl)phenyl)-3-(4-cyanobenzamide)-N-methylbenzamide]
≥ 70%: pest or weed control at 1 ppm (Spodoptera litura) | pest or weed control at 1 ppm (Plutella xylostella) | pest or weed control at 100 ppm (Laodelphax striatellus)

CN(C(=O)c1cccnc1Cl)c1cccc(C(=O)Nc2c(I)cc(C(F)(C(F)(F)F)C(F)(F)C(F)(F)F)cc2C(F)(F)F)c1F (stereo not drawn) [7-1844]
≥ 70%: pest or weed control at 1 ppm (Spodoptera litura) | pest or weed control at 1 ppm (Plutella xylostella) | pest or weed control at 100 ppm (Laodelphax striatellus)

O=C(Nc1cccc(C(=O)Nc2c(Br)cc(C(F)(C(F)(F)F)C(F)(F)C(F)(F)F)cc2Br)c1F)c1ccc(Cl)nc1 (stereo not drawn) [6-1225]
≥ 70%: pest or weed control at 1 ppm (Spodoptera litura) | pest or weed control at 1 ppm (Plutella xylostella) | pest or weed control at 100 ppm (Laodelphax striatellus)

CN(C(=O)c1cccnc1Cl)c1cccc(C(=O)Nc2c(Br)cc(C(F)(C(F)(F)F)C(F)(F)F)cc2Br)c1F [7-1140]
≥ 70%: pest or weed control at 1 ppm (Spodoptera litura) | pest or weed control at 1 ppm (Plutella xylostella) | pest or weed control at 100 ppm (Laodelphax striatellus)

CN(C(=O)c1ccccc1F)c1cccc(C(=O)Nc2c(Br)cc(C(F)(C(F)(F)F)C(F)(F)C(F)(F)F)cc2Br)c1F (stereo not drawn) [7-1183]
≥ 70%: pest or weed control at 1 ppm (Spodoptera litura) | pest or weed control at 1 ppm (Plutella xylostella) | pest or weed control at 100 ppm (Laodelphax striatellus)

O=C(Nc1cccc(C(=O)Nc2c(Br)cc(C(F)(C(F)(F)F)C(F)(F)C(F)(F)F)cc2Br)c1F)c1ccc(F)cc1 (stereo not drawn) [6-1185]
≥ 70%: pest or weed control at 1 ppm (Spodoptera litura) | pest or weed control at 1 ppm (Plutella xylostella) | pest or weed control at 100 ppm (Laodelphax striatellus)

CN(C(=O)c1ccc(Cl)nc1)c1cccc(C(=O)Nc2c(I)cc(C(F)(C(F)(F)F)C(F)(F)F)cc2C(F)(F)F)c1 [7-467]
≥ 70%: pest or weed control at 1 ppm (Spodoptera litura) | pest or weed control at 1 ppm (Plutella xylostella) | pest or weed control at 100 ppm (Laodelphax striatellus)

CN(C(=O)c1cccnc1Cl)c1cccc(C(=O)Nc2c(Br)cc(C(F)(F)C(F)(F)F)cc2C(F)(F)F)c1 [7-5912]
≥ 70%: pest or weed control at 10 ppm (Spodoptera litura) | pest or weed control at 10 ppm (Plutella xylostella) | pest or weed control at 100 ppm (Laodelphax striatellus)

N#Cc1ccc(C(=O)Nc2c(Br)cc(C(F)(C(F)(F)F)C(F)(F)F)cc2C(F)(F)F)cc1NC(=O)c1ccccc1 [1-627, 3-benzamide-N-(2-bromo-4-(perfluoropropan-2-yl)-6-(trifluoromethyl)phenyl)-4-cyanobenzamide]
≥ 70%: pest or weed control at 1 ppm (Spodoptera litura) | pest or weed control at 1 ppm (Plutella xylostella) | pest or weed control at 100 ppm (Laodelphax striatellus)

N#Cc1ccc(C(=O)Nc2cccc(C(=O)Nc3c(Br)cc(C(F)(C(F)(F)F)C(F)(F)C(F)(F)F)cc3Br)c2F)cc1 (stereo not drawn) [6-1203]
≥ 70%: pest or weed control at 1 ppm (Spodoptera litura) | pest or weed control at 1 ppm (Plutella xylostella) | pest or weed control at 100 ppm (Laodelphax striatellus)

CN(C(=O)c1ccc(F)cc1)c1cccc(C(=O)Nc2c(I)cc(C(F)(C(F)(F)F)C(F)(F)C(F)(F)F)cc2I)c1F (stereo not drawn) [7-1341]
≥ 70%: pest or weed control at 1 ppm (Spodoptera litura) | pest or weed control at 1 ppm (Plutella xylostella) | pest or weed control at 100 ppm (Laodelphax striatellus)

CN(C(=O)c1cccc(F)c1)c1cccc(C(=O)Nc2c(I)cc(C(F)(C(F)(F)F)C(F)(F)C(F)(F)F)cc2I)c1 (stereo not drawn) [7-5904]
≥ 70%: pest or weed control at 1 ppm (Spodoptera litura) | pest or weed control at 1 ppm (Plutella xylostella) | pest or weed control at 100 ppm (Laodelphax striatellus)

O=C(Nc1cccc(C(=O)Nc2c(Br)cc(C(F)(C(F)(F)F)C(F)(F)F)cc2OC(F)(F)F)c1F)c1ccccc1 [6-5907]
≥ 70%: pest or weed control at 1 ppm (Spodoptera litura) | pest or weed control at 1 ppm (Plutella xylostella) | pest or weed control at 100 ppm (Laodelphax striatellus)

CN(C(=O)c1ccc(C#N)cc1Cl)c1cccc(C(=O)Nc2c(Br)cc(C(F)(C(F)(F)F)C(F)(F)F)cc2C(F)(F)F)c1 [7-301]
≥ 70%: pest or weed control at 1 ppm (Spodoptera litura) | pest or weed control at 1 ppm (Plutella xylostella) | pest or weed control at 100 ppm (Laodelphax striatellus)

O=C(Nc1cccc(C(=O)Nc2c(I)cc(C(F)(C(F)(F)F)C(F)(F)F)cc2I)c1F)c1ccccc1F [6-1261]
≥ 70%: pest or weed control at 1 ppm (Spodoptera litura) | pest or weed control at 1 ppm (Plutella xylostella) | pest or weed control at 100 ppm (Laodelphax striatellus)

O=C(Nc1cccc(C(=O)Nc2c(Br)cc(C(F)(C(F)(F)F)C(F)(F)F)cc2OC(F)(F)F)c1F)c1cccnc1Cl [6-5908, N-(3-(2-bromo-4-(perfluoropropan-2-yl)-6-(trifluoromethoxy)phenylcarbamoyl)-2-fluorophenyl)-2-chloronicotinamide]
≥ 70%: pest or weed control at 1 ppm (Spodoptera litura) | pest or weed control at 1 ppm (Plutella xylostella) | pest or weed control at 100 ppm (Laodelphax striatellus)

N#Cc1ccc(C(=O)Nc2cccc(C(=O)Nc3c(I)cc(C(F)(C(F)(F)F)C(F)(F)C(F)(F)F)cc3I)c2)cc1 (stereo not drawn) [6-79, 3-(4-cyanobenzamide)-N-(2,6-diiodo-4-(perfluorobutan-2-yl)phenyl)benzamide]
≥ 70%: pest or weed control at 1 ppm (Spodoptera litura) | pest or weed control at 1 ppm (Plutella xylostella) | pest or weed control at 100 ppm (Laodelphax striatellus)

CN(C(=O)c1cccnc1Cl)c1cccc(C(=O)N(C)c2c(Br)cc(C(F)(C(F)(F)F)C(F)(F)F)cc2C(F)(F)F)c1 [9-306]
≥ 70%: pest or weed control at 1 ppm (Spodoptera litura) | pest or weed control at 1 ppm (Plutella xylostella) | pest or weed control at 100 ppm (Laodelphax striatellus)

N#Cc1ccc(C(=O)Nc2cccc(C(=O)Nc3c(Br)cc(C(F)(C(F)(F)F)C(F)(F)F)cc3C(F)(F)C(F)(F)F)c2F)cc1 [6-5911, N-(2-bromo-6-(perfluoroethyl)-4-(perfluoropropan-2-yl)phenyl)-3-(4-cyanobenzamide)-2-fluorobenzamide]
≥ 70%: pest or weed control at 1 ppm (Spodoptera litura) | pest or weed control at 1 ppm (Plutella xylostella) | pest or weed control at 100 ppm (Laodelphax striatellus)

O=C(Nc1cc(C(=O)Nc2c(Br)cc(C(F)(C(F)(F)F)C(F)(F)F)cc2C(F)(F)F)ccc1F)c1ccccc1 [6-3348, 3-benzamide-N-(2-bromo-4-(perfluoropropan-2-yl)-6-(trifluoromethyl)phenyl)-4-fluorobenzamide]
≥ 70%: pest or weed control at 1 ppm (Spodoptera litura) | pest or weed control at 1 ppm (Plutella xylostella) | pest or weed control at 100 ppm (Laodelphax striatellus)

O=C(Nc1c(Br)cc(C(F)(C(F)(F)F)C(F)(F)F)cc1C(F)(F)F)c1cccc(NC(=O)c2cccnc2Cl)c1 [6-304]
≥ 70%: pest or weed control at 1 ppm (Spodoptera litura) | pest or weed control at 1 ppm (Plutella xylostella) | pest or weed control at 100 ppm (Laodelphax striatellus)

O=C(Nc1c(Br)cc(C(F)(C(F)(F)F)C(F)(F)F)cc1C(F)(F)F)c1ccc(F)c(NC(=O)c2cccnc2Cl)c1 [6-3384]
≥ 70%: pest or weed control at 1 ppm (Spodoptera litura) | pest or weed control at 1 ppm (Plutella xylostella) | pest or weed control at 100 ppm (Laodelphax striatellus)

CN(C(=O)c1ccccc1)c1cccc(C(=O)Nc2c(Cl)cc(C(F)(C(F)(F)F)C(F)(F)F)cc2Cl)c1F [7-948]
≥ 70%: pest or weed control at 1 ppm (Spodoptera litura) | pest or weed control at 1 ppm (Plutella xylostella) | pest or weed control at 100 ppm (Laodelphax striatellus)

O=C(Nc1cccc(C(=O)Nc2c(Br)cc(C(F)(C(F)(F)F)C(F)(F)C(F)(F)F)cc2C(F)(F)F)c1F)c1ccccc1F (stereo not drawn) [6-1653]
≥ 70%: pest or weed control at 1 ppm (Spodoptera litura) | pest or weed control at 1 ppm (Plutella xylostella) | pest or weed control at 100 ppm (Laodelphax striatellus)

CN(C(=O)c1c(F)cccc1F)c1cccc(C(=O)Nc2c(Br)cc(C(F)(C(F)(F)F)C(F)(F)C(F)(F)F)cc2Br)c1F (stereo not drawn) [7-1204]
≥ 70%: pest or weed control at 1 ppm (Spodoptera litura) | pest or weed control at 1 ppm (Plutella xylostella) | pest or weed control at 100 ppm (Laodelphax striatellus)

From patent US8686044B2, “Amide derivative, pest control agent containing the amide derivative, and use of the amide derivative” (Mitsui Chemicals Agro, Inc., priority 2008, dated 2014)
